B1: IL-6: Porcine interleukin 6 (R&D systems) (protein, UniProt P26893 30-212, looked up)
Interleukin-6: ERLEEDAKGDATSDKMLFTSPDKTEELIKYILGKISAMRKEMCEKYEKCENSKEVLAENNLNLPKMAEKDGCFQSGFNQETCLMRITTGLVEFQIYLDYLQKEYESNKGNVEAVQISTKALIQTLRQKGKNPDKATTPNPTTNAGLLDKLQSQNEWMKNTKIILILRSLEDFLQFSLRAIRIM
B2: IL-10: Porcine interleukin 10 (R&D systems) (protein, UniProt Q29055 19-175, looked up)
Interleukin-10: SIKSENSCIHFPTSLPHMLRELRAAFGPVKSFFQTKDQMGDLLLTGSLLEDFKGYLGCQALSEMIQFYLEDVMPKAESDGEDIKEHVNSLGEKLKTLRLRLRRCHQFLPCENKSKAVEEVKSAFSKLQERGVYKAMGEFDIFINYIEAYMTMKMRKN

Experiments:
[1] = tested on: PCV2 infection of PK-15 cells; assay: Number of PCV2-infected PK-15 cells (IPMA) with endosomal-lysosomal acidification inhibitors with or without IFN-gamma; type: cell-based, Porcine circovirus 2; settings: for effect on PCV2 infection in IFN-gamma treated cells (in words): PK-15 pre-treated with 500 U/ml IFN-gamma 24 hours; for effect on PCV2 infection in IFN-gamma treated cells (in words) / effect on PCV2 infection compared to control (in words): inhibitor 24 hours after inoculation, 36 hpi; for effect on PCV2 infection compared to control (in words): PK-15 without IFN-gamma; for highest concentration exerting maximal effect without affecting cell viability (chosen): two-fold dilution in PK-15 cells, Stoon-1010
Description: Endosomal-lysosomal system acidification was inhibited using lysosomotropic weak bases (ammonium chloride and chloroquine diphosphate) and carboxylic ionophore monensin. All chemical compounds were purchased from Sigma. In a first set of experiments, a two-fold dilution of each inhibitor in PK-15 cells using Stoon-1010 was performed to determine the highest concentration of each inhibitor that exerted the maximal effect without affecting cell viability. Finally, 25 mM ammonium chloride, 125 μM chloroquine diphosphate and 6 μM monensin were chosen. PK-15 cells were cultivated for 24 hours and then inoculated with a dose of PCV2 for 1 hour at 37° C. The viral inoculum was washed-off and cells were further incubated in culture medium with or without inhibitors of endosomal-lysosomal acidification for 24 hours. Then, the culture medium containing endosomal-lysosomal system inhibitors was replaced with fresh culture medium without inhibitors. After the first cycle of PCV2 replication, at 36 hpi, cells were fixed with methanol at −20° C. for 10 minutes. Cells were stored at −20° C. until they were stained using an immunoperoxidase monolayer assay (IPMA) as described by Sanchez et al. (2003, Vet Microbiol 95, 15-25).
PK-15 cells were pre-treated with or without 500 U/ml IFN-gamma for 24 hours before they were inoculated with the same dose of PCV2 for 1 hour at 37° C. The viral inoculum was washed-off and cells were further incubated in culture medium containing inhibitors of endosomal-lysosomal acidification for 24 hours. Then, the culture medium containing endosomal-lysosomal system inhibitors was replaced with fresh culture medium without inhibitors. After the first cycle of PCV2 replication, at 36 hours post-inoculation cells were fixed with methanol at −20° C. for 10 minutes. Cells were stored at −20° C. until they were stained using an immunoperoxidase monolayer assay (IPMA) as described above. The number of infected cells per well in mock-treated cells inoculated with an equal dose of PCV2 as treated cells was used as the referent, and all results are expressed as a percentage of this referent. All experiments were performed three times, and each condition in a single experiment was performed in duplicate.

[2] = tested on: PCV2 strain Stoon-1010 in PK-15 cells; assay: Progeny PCV2 production in PK-15 cells with acidification inhibitors and/or IFN-gamma; type: cell-based, Porcine circovirus 2
Description: For progeny virus production assays, 2×10^5 cells were seeded in every well of 24-well cell culture plates. Cells were pre-treated with or without 500 U/ml IFN-gamma at 6 hours post seeding. At 24 h post-seeding, cells were washed and inoculated with the prototype PCV2 strain Stoon-1010 at an m.o.i. of 0.3 for 1 hour at 37° C. The viral inoculum was washed-off and cells were further incubated in 1 ml of culture medium with or without 25 mM ammonium chloride, 125 μM chloroquine diphosphate and/or 6 μM monensin for 24 hours. Then, the culture medium with or without endosomal-lysosomal system acidification inhibitors was replaced with fresh culture medium without inhibitors. At 1, 24, 48 and 72 hours post-inoculation the supernatant was collected. Subsequently the culture was washed once with 1 ml PBS. Both the supernatant and the washing fluid were centrifuged for 10 minutes at 15,000×g to pellet cells and debris. The centrifuged supernatant and washing fluids were combined and considered to contain the extracellular virus. Both pellets and cell cultures were freeze-thawed three times and considered to contain the intracellular virus. Intra- and extracellular virus titres were determined by titration on PCV-negative PK-15 cells as described previously. Viral antigens were detected using an IPMA as described above and PCV2 titre was expressed as log10 TCID50 per 10^5 cells.

[3] = tested on: PCV2 (field strain Imp-1121); assay: PCV2 replication in inoculated pigs given IFN-gamma or ConA; type: in vivo; settings: pigs inoculated at 19 days of age; samples 10, 15, 21 days post inoculation
Description: Pigs are inoculated with PCV2 (field strain Imp-1121) at 19 days of age. These inoculated pigs are divided in 3 groups. One group contains control pigs (only PCV2). The second group of pigs receives recombinant IFN-gamma (100,000 U per pig every three days). The third group contains pigs that receive ConA (1.5 mg/kg every three days). At different times post inoculation (10, 15, 21 days) samples are collected and the replication of the virus is assessed.

[4] = tested on: PCV2-infected PK-15 cells; assay: Number of PCV2-infected PK-15 cells (IPMA) after treatment with cytokines or natural cytokine sources; type: cell-based, Porcine circovirus 2; settings: PK-15 cells; cytokine dilution series, before, during or after inoculation; 36 h
Description: PK-15 cells were seeded and maintained in culture medium containing 5%-10% fetal bovine serum (FBS), 0.3 mg/ml glutamine, 100 U/ml penicillin, 0.1 mg/ml streptomycin, 0.1 mg/ml kanamycin dissolved in minimal essential medium (MEM) (Gibco BRL®, Grand Island, USA) or dissolved in RPMI-1640 (GIBCO BRL®, Grand Island, USA) containing 1% nonessential amino acids (100×; GIBCO BRL®, Grand Island, USA) and 1 mM sodium pyruvate (GIBCO BRL®, Grand Island, USA). Cells were seeded at a concentration of 150,000 cells per ml of medium. For the detection of total viral antigen positive cells, the cells were seeded in 96-well microtiter plates (Nunc) (15,000-20,000 cells per well). To detect the expression of specific viral antigens, cells were seeded on sterile cover slips in Leighton tubes (150,000 cells per tube) and finally progeny virus production assays were performed in 24-well plates containing […].
(§1) In order to use cells, more related to the target cells in vivo, the monocytic cell line 3D4/31 was used to confirm the effect of the different cytokines on the number of PCV2-infected cells. The 3D4/31 cell line is a porcine monomyeloid cell lines that was established following transfection of primary porcine alveolar macrophage cultures with plasmid pSV3neo, carrying genes for neomycin resistance and SV40 large T antigen. (Weingartl et al. (2002) J Virol Methods. 10, 203-216). These cells were maintained in a 1:1 mixture of RPMI-1640 (Invitrogen) and DMEM (Invitrogen) supplemented with 10% fetal bovine serum, 0.3 mg/ml glutamine, 100 U/ml penicillin, 0.1 mg/ml streptomycin, 0.1 mg/ml kanamycin and 1% non-essential amino acids 100× (GIBCO BRL®, Grand Island, USA). These experiments were also performed in 96-well plates containing the same number of cells. Furthermore, to monitor the effect of IFN-gamma on the entry of PCV2 virion-like particles was determined, 3D4/31 cells were seeded at 2×10^5 cells/ml of medium onto microscopic slides mounted with an 8 well cell culture silicone chamber (Vivascience AG, Hanover). In all inoculations, the same PCV2-strain (Stoon-1010) was used at a multiplicity of infection of 0.01. The virus was diluted in MEM and inoculated on the cell cultures by incubating cells and virus for 1 hour at 37° C. After 1 hour, the inoculum was removed, the cultures were washed twice with MEM and new culture medium was added.
(§2) The influence of the cytokines on the infection of PCV2 in PK-15 and 3D4/31 cells was determined by adding two-fold-dilution series of the cytokines to the medium of the cells before, during or after the inoculation. IL-1, IL-6, […] and IFN-alpha were used in concentrations ranging from 0.25-250 Units/ml (U/ml), IFN-gamma was used in concentrations ranging from 0.25-1000 U/ml and IL-10 was used in concentrations from 0.13-125 U/ml. Cell cultures were either pre-treated with the cytokines for 24 hours before inoculation, treated during the inoculation or the cytokines were added in the medium after the inoculation. After 36 hours of incubation at 37° C. in an environment supplemented with 5% CO2, the cells were fixed by drying and frozen at −20° C. The plates were stained with an immuno-peroxydase monolayer assay (IPMA) as described by Sanchez et al. (2003, Vet Microbiol 95, 15-25) and the number of PCV2-positive cells was counted by light microscopy. In each plate a control was inoculated with an equal dose of mock-treated PCV2 (treated with MEM without cytokines). The number of infected cells in this well was used as the reference and all results were expressed as a ratio to this reference.
Two-fold dilutions of the BAL-fluids of the PRCV and mock-inoculated pigs were added to the medium of PCV2-inoculated PK-15 cells after inoculation. Concentrations of the added BAL-fluids ranged from 1.25 to 5%. Supernatants of ConA and mock-stimulated PBMC's were also added to the culture medium of PK-15 cells after inoculation in concentrations ranging from […] to 50%. […]

[5] = tested on: PCV2-infected 3D4/31 cells; assay: Number of PCV2-infected 3D4/31 cells (IPMA) after cytokine treatment; type: cell-based, Porcine circovirus 2; settings: 3D4/31 cells; any concentration, before, during or after inoculation
Excerpt: as §1, §2

[6] = IFN-gamma 500 U/ml pre-treatment

Row | Molecule | effect on PCV2 infection in IFN-gamma treated cells (in words) [1] | effect on PCV2 infection compared to control (in words) [1] | highest concentration exerting maximal effect without affecting cell viability (chosen) [1] [µM] | PCV2 titres at 1 hpi ([2]; IFN-gamma 0 U/ml) [TCID50 per 10^5 cells] | PCV2 titres at 24 hpi ([2]; IFN-gamma 0 U/ml) [TCID50 per 10^5 cells] | PCV2 titres at 48 hpi ([2]; IFN-gamma 0 U/ml) [TCID50 per 10^5 cells] | PCV2 titres at 72 hpi ([2]; IFN-gamma 0 U/ml) [TCID50 per 10^5 cells] | PCV2 titres at 1 hpi [2, 6] [TCID50 per 10^5 cells] | PCV2 titres at 24 hpi [2, 6] [TCID50 per 10^5 cells] | PCV2 titres at 48 hpi [2, 6] [TCID50 per 10^5 cells] | PCV2 titres at 72 hpi [2, 6] [TCID50 per 10^5 cells] | replication of PCV2 compared to control pigs (in words) [3] | change in the number of PCV2-positive cells (in words) [4] | change in the number of PCV2-positive cells (in words) [5]
1 | Cl.N [Ammonium chloride, ammonium chloride] | enhanced PCV2 infection | enhance PCV2 infection | 25000 | 2.1 | 1.9 | 3.0 | 3.8 | 1.6 | 3.0 | 4.0 | 4.8 | – | – | –
2 | concanavalin A [ConA] | – | – | – | – | – | – | – | – | – | – | – | increase in the replication of PCV2 | – | –
3 | CCN(CC)CCCC(C)Nc1ccnc2cc(Cl)ccc12 (stereo not shown) [Chloroquine diphosphate, chloroquine diphosphate] | enhanced PCV2 infection | enhance PCV2 infection | 125 | 1.4 | 1.8 | 3.3 | 4.3 | 1.6 | 2.3 | 4.0 | 4.6 | – | – | –
4 | CC[C@@]1([C@@H]2O[C@@H]([C@H]3O[C@@](O)(CO)[C@H](C)C[C@@H]3C)C[C@@H]2C)CC[C@H]([C@]2(C)CC[C@]3(C[C@H](O)[C@@H](C)[C@@H]([C@@H](C)[C@@H](OC)[C@H](C)C(=O)O)O3)O2)O1 [Monensin, monensin] | enhanced PCV2 infection | enhance PCV2 infection | 6 | 1.9 | 2.3 | 3.9 | 3.6 | 2.0 | 2.8 | 4.6 | 4.8 | – | – | –
5 | TNF-alpha | – | – | – | – | – | – | – | – | – | – | – | – | no significant change | did not induce a significant change
6 | B1 | – | – | – | – | – | – | – | – | – | – | – | – | no significant change | did not induce a significant change
7 | B2 | – | – | – | – | – | – | – | – | – | – | – | – | no significant change | did not induce a significant change

From patent US9119806B2, “Culturing circular ssDNA viruses for the production of vaccines” (priority 2007, dated 2015)
